The record followed here is US20240285585A1, “L-ERGOTHIONEINE AND USES THEREOF” (NANJING NUTRABUILDING BIO-TECH CO., LTD., priority 2021, published 2024).

This test has as its system human polymorphonuclear phagocytes. Nature of the test: in vitro PMN model: ROS formation triggered by fMLP, dihydrorhodamine fluorescence by flow cytometry. It counts as cell-based. As for the experimental part:
L-ergothioneine meeting the purity specifications defined herein was tested using in an in vitro PMN model using cells from a healthy blood donor. Minute samples of blood were exposed to L-ergothioneine (0.01-5 g/L) for 24 hours. The cells were then loaded with the dihydrorhodamine dye, which turns fluorescent upon exposure to ROS. Formation of ROS was triggered by addition of the bacterial peptide f-Met-Leu-Phe (fMLP). The samples were treated with a lysing buffer to eliminate most of the red blood cells in the samples, after which the samples were fixed in formalin. The fluorescence intensity of the PMN cells was evaluated by flow cytometry. The low fluorescence intensity of untreated control cells served as a baseline and PMN cells treated with fMLP alone served as a positive control.
The results are depicted in FIG. 1. […] The percent inhibition is shown as the average±standard deviation of sextuplicate data points for each dose of L-ergothioneine.
(Flow cytometry measures light scatter and fluorescence of single cells or particles in a stream.)

For the molecule `C[N+](C)(C)[C@@H](Cc1c[nH]c(=S)[nH]1)C(=O)[O-]` [L-ergothioneine, (2S)-3-(2-thioxo-2,3-dihydro-1H-imidazol-4-yl)-2-(trimethylammonio)-propanoate], where the note is “PMN cells from a healthy blood donor, L-ergothioneine 0.01-5 g/L for 24 hours, compared to fMLP alone”, the “ROS formation in response to the bacterial peptide fMLP” value is on record as “enhanced ROS formation”. Also, the “increase in ROS formation compared to the control cultures” value (across the 0.6 g/L dose reported in human tissue, 24 hours, fMLP-triggered) was “remained statistically significant”.
